Reference: patent publication US10973815B2, “Delta opioid agonist mu opioid antagonist compositions and methods for treating Parkinsons disease” (priority 2016, dated 2021)
“Also recorded” adds a separate entry of the source.

Assays:
[1] = Oral bioavailability in macaques; design: species or system Macaca fascicularis; details: cynomolgus monkey, in vivo
Source text: ON-time represents lack of bradykinesia so mere improvement in bradykinesia would not be reflected in changes in ON-time. The oral bioavailability of the drug in these animals was only 1-2% so the lack of effect on ON-time is likely due to inadequate systemic exposure levels. Higher systemic levels of the drug may have a more profound effect on bradykinesia and which could translate into changes in ON-time.

[2] = tested on: 6-OHDA-lesioned rats; assay: Rotations in unilateral 6-OHDA-lesioned rats; format: in vivo, rat
Source text: N=6 rats per group, Newman-Keuls post hoc test was used for statistical significance.
N=8 per group, Newman-Keuls post hoc test for statistical significance.
In a rat model of PD, focal injection of the neurotoxin 6-hydroxydopamine (6-OHDA) was used to create a unilateral lesion of the nigrostriatal dopamine pathway. When challenged with dopamine agonists, rats rotate in the direction contralateral to the lesion and the number of rotations may be used as a measure of anti-parkinsonian efficacy.

[3] = tested on: L-DOPA naïve MPTP-lesioned macaques; assay: Monotherapy with Formula (i) in L-DOPA naïve MPTP-lesioned macaques; format: in vivo, Macaca fascicularis
Procedure: This activity is measured by an infra-red movement detector and captures all movement, normal and abnormal. MPTP-lesioned cynomolgus monkeys received acute oral administration of either vehicle or Formula (i) (1, 10 or 20 mg/kg) according to a randomized incomplete Latin Square-type. Levels of activity were assessed every minute over the entire 6 h observation. […] (FIG. 1A; time-course) or cumulated shown in FIG. 1B for 0-3 h; or FIG. 1C for 3-6 hr. N=8 for all treatment groups. */**/*** represents P<0.05, P<0.01 or P<0.001 cf. vehicle-treatment; 2-way RM ANOVA (FIG. 1A) or 1-way RM-ANOVA with Holm-Sidak's Multiple Comparison test (FIGS. 1B and C) (ns—not significant).
MPTP-lesioned cynomolgus monkeys received acute oral administration of either vehicle or Formula (i) (1, 10 or 20 mg/kg) according to a randomized incomplete Latin Square-type. Levels of bradykinesia were assessed every 10 min over the entire 6 h observation and total duration of ON-time (minutes for which bradykinesia was absent) was calculated. Data are mean±s.e.m. N=8 for all treatment groups. All P>0.05, cf vehicle-treatment; 1-way, RM-ANOVA with Holm-Sidak's Multiple Comparison test.
Parkinsonian disability is scored by a trained neurologist who is blinded to treatment allocation but is trained to differentiate normal from abnormal movements and is able to distinguish diminution of Parkinsonian disability from dyskinetic (abnormal) movements. MPTP-lesioned cynomolgus monkeys received acute oral administration of either vehicle or Formula (i) (1, 10 or 20 mg/kg) according to a randomized incomplete Latin Square-type. Levels of parkinsonian disability were assessed every 10 min over the entire 6 h observation. […] N=8 for all treatment groups. */P<0.05 cf. vehicle-treatment; 2-way RM ANOVA of ranked data (FIG. 5A) or 1-way RM-ANOVA with Holm-Sidak's Multiple Comparison test (FIGS. 5B and C).
(§1) Eight cynomolgus monkeys (Macaca fascicularis, 6.4-6.8 years of age, 2.8-4.2 kg were used in this study. Animals were housed two or three per cage in the same housing room. The housing rooms were subject to a 12 hour light-dark cycle (lights on 7 a.m.), temperature 20-25° C. in a room containing only animals of the same sex. Fresh fruit, primate pellets and water were available ad libitum other than at times of overnight fasting prior to PK or behavioral assessment days.
(§2) The animals were rendered parkinsonian via once-daily subcutaneous injection of MPTP (0.2 mg/kg), administered for between 9 and 12 days, until the appearance of parkinsonism symptoms. After this time, a parkinsonian syndrome reached a moderate to marked level, over approximately 30 days, and stabilized. […] L-DOPA naïve animals have received no L-DOPA and those showing established motor complication have received L-DOPA in an amount 25 mg/kg orally twice daily for at least 2 months. L-DOPA is given with the decarboxylase inhibitor benserazide (as Madopar™).

[4] = tested on: unilateral 6-OHDA-lesioned Rats; assay: Postural asymmetry and dyskinesia (AIMs) on repeated dosing in unilateral 6-OHDA-lesioned rats; format: in vivo, rat; details: 3 mg/kg p.o. daily for 15 days
[5] = tested on: MPTP-lesioned macaques with established motor complications; assay: Monotherapy with DPI-289 in MPTP-lesioned macaques with established motor complications due to L-DOPA; format: in vivo, Macaca fascicularis
Procedure: This activity is measured by an infra-red movement detector and captures all movement, normal and abnormal. Data are mean±s.e.m. […] N=8 for all treatment groups. */**/*** represents P<0.05, P<0.01 or P<0.001 cf vehicle-treatment; 2-way RM ANOVA (FIG. 2A) or 1-way RM-ANOVA with Holm-Sidak's Multiple Comparison test (FIGS. 2B and C). […].
Parkinsonian disability is scored by a trained neurologist who is blinded to treatment allocation but is trained to differentiate normal from abnormal movements and is able to distinguish diminution of Parkinsonian disability from dyskinetic (abnormal) movements. Data are mean±s.e.m. […] N=8 for all treatment groups. */**/*** represents P<0.05, P<0.01 or P<0.001 cf. vehicle-treatment; 2-way RM ANOVA (FIG. 6A) or 1-way RM-ANOVA with Holm-Sidak's Multiple Comparison test (FIGS. 6 B and C).
as §1, §2

[6] = 1, 10 or 20 mg/kg oral, Friedman test
[7] = any dose assessed (1, 10, 20 mg/kg oral)

SMILES: CCN(CC)C(=O)c1ccc(C(c2cccc(O)c2)N2C[C@@H](C)N(Cc3cccc(F)c3)C[C@@H]2C)cc1 (stereo partly drawn) [DPI-289, 4-((alpha-R)-alpha-((2S,5R)-2,5-Dimethyl-4-(3-fluorobenzyl)-1-piperazinyl)-3-hydroxybenzyl)-N,N-diethylbenzamide]
- bioavailability [1]: 1 to 2%
- contralateral and ipsilateral rotations ([2]; 30 mg/kg): also increased rotations but the effect on contralateral rotations appeared to be diminished
- contralateral and ipsilateral rotations ([2]; 1-10 mg/kg i.p.): dose-related increase in both contralateral and ipsilateral rotations
- L-DOPA-induced contralateral rotations ([2]; co-administered with sub-optimal dose of L-DOPA (25 mg/kg i.p.)): marked potentiation of contralateral rotations
- total duration of ON-time (mean) ([3]; 1 mg/kg oral, 6 h observation): 46 ± 48 min
- postural impairment level ([3]; 10 mg/kg oral, 1-2 h period of observation (2-3 h after treatment), P<0.01 cf. vehicle): absent-mild levels
- increase in activity counts cf. vehicle ([3]; 10 mg/kg oral, 1-2 h period of observation (2-3 h after treatment), P<0.05): 62%
- parkinsonian disability level ([3]; 10 mg/kg oral, 1-2 h period of observation (2-3 h after treatment), P<0.05 cf. vehicle (mild-moderate levels)): absent-mild levels
- total duration of ON-time (mean) ([3]; 10 mg/kg oral, 6 h observation): 49 ± 48 min
- bradykinesia level ([3]; 10 mg/kg oral, first four hours of observation (1-5 h after administration), P<0.05 cf. vehicle (moderate-marked levels)): mild-moderate levels
- increase in activity counts cf. vehicle ([3]; 20 mg/kg oral, 1-2 h period of observation (2-3 h after treatment), P<0.01): 63%
- increase in activity counts cf. vehicle ([3]; 20 mg/kg oral, 2-3 h period of observation, P<0.05): 82%
- total duration of ON-time (mean) ([3]; 20 mg/kg oral, 6 h observation): 1 ± 1 min
- dyskinesia ([3]; 1, 10 or 20 mg/kg oral, 6 h observation, listed as Formula (i)): did not evoke dyskinesia; also recorded: All zero values
- average postural impairment cumulated 0-3 h ([3]; 1, 10 or 20 mg/kg oral, Friedman P=0.031, post-hoc Dunn's all P>0.05): significant effect of Formula (i) treatment
- average bradykinesia cumulated 0-3 h ([3]; 1, 10 or 20 mg/kg oral, Friedman P=0.034, post-hoc Dunn's all P>0.05): significant effect of DPI-289 treatment
- average bradykinesia cumulated 3-6 h [3, 6]: no significant effects
- average parkinsonism cumulated over 0-3 h and 3-6 h [3, 6]: no significant effect
- average postural impairment cumulated 3-6 h [3, 6]: no significant effects
- average activity cumulated over 0-3 h and 3-6 h ([3]; 1, 10 or 20 mg/kg oral, cf. vehicle): no significant effect
- alertness [3, 7]: no increase in levels of alertness
- range of movement [3, 7]: no reduction in levels of impaired range of movement
- total duration of ON-time cf. vehicle [3, 7]: no significant increase in total duration of ON-time
- dyskinesia (abnormal involuntary movements, AIMs) [4]: did not elicit dyskinesia
- postural asymmetry [4]: reduced or reversed the postural asymmetry
- bradykinesia ([5]; 20 mg/kg): significant change only in the first hour
- ON-time ([5]; 20 mg/kg oral): only limited on-time
- parkinsonian disability ([5]; 20 mg/kg, two to three hours after dosing): significant reduction in parkinsonian disability
- postural impairment ([5]; 1, 10 and 20 mg/kg, two to four hours after dosing): significant reduction in postural impairment
- range of movement ([5]; 1, 10 or 20 mg/kg, three to four hours after dose): increase in the range of movement
- alertness ([5]; 10 or 20 mg/kg, two to four hours after dosing): significant reduction in deficits in alertness
- dyskinesia ([5]; L-DOPA primed animals, 1, 10, 20 mg/kg): does not cause dyskinesia
- duration of effect on parkinsonian disability ([5]; single dose of 20 mg/kg): about 4 hours
- movement activity / motor impairment ([5]; single oral dose of 10 or 20 mg/kg): significantly alleviated motor impairment for 1 to 4 hours
